# Measured values reported in patent US20030175680A1, “Methods of treating and preventing bone loss” (priority 2002, published 2003).
# pIC50: −log10 of the molar value. Entries after “also recorded” stand apart in the source; their conditions may differ.
# Legend:
# Lck-IL4 transgenic mice = assay: Lck-IL4 transgenic mouse model of osteoporosis: whole body and femoral bone parameters; format: in vivo; details: Lck-IL4 mice fed Compound 2 150 mg/kg bid in food 84 days vs untreated Lck-IL4 controls
# Protocol: The ability of 15-lipoxygenase inhibitors to promote bone formation in vivo was assessed by measuring the ability of the inhibitors to improve bone parameters in a mouse model of osteoporosis. Constitutive expression of an Interleukin-4 transgene from the Lck gene promoter (Lck-IL4) in C57BL/6 mice results in a severe bone phenotype mimicking osteoporosis.
# Mice were permitted access to one-half the daily food intake twice daily at approximately 12 h intervals and diet intake was monitored daily. Water was available ad libitum. The control groups received the same diet without Compound 2. All groups consumed food equally well over the course of the experiment. […]
# Bone mineral measurements were determined by dual energy X-ray absorptiometry (DEXA). […]
# The cross-sectional geometric parameters of the mid-diaphysis of the femora were determined using a portable x-ray microtomograph (Model 1074, Skyscan, Antwerp, Belgium). Scans were taken at […] intervals, and a slice located at the midpoint of the femur was analyzed for total area (FCSA), cortical area (Ct Ar) and medullary canal area (Ma Ar). In addition, using the pixels contained in the cortical region of the digital image, the radius from the centroid of the cross-section to the outer fiber in the anterior-posterior plane, the areal moment of inertia (Ixx) in the plane of bending and the average cortical thickness (Ct Th) were calculated. […]
# [1] = system: human mesenchymal stem cells (hMSC); assay: Alkaline phosphatase activity in hMSC cultures induced to differentiate into osteoblasts; format: cell-based; details: for normalized activity of alkaline phosphatase: hMSC, second experimental set, inhibitors added on Day 1 or Day 11, FIG. 6; for alkaline phosphatase activity: hMSC cultured 9 days with 5-LO inhibitors, relative to DMSO, FIG. 8
# Protocol: (§1) In order to determine the ability of inhibitors of 15-lipoxygenase to stimulate bone formation and bone accretion, the ability of the 15-LO inhibitors to promote measures of differentiation of stem cells into bone forming cells (osteoblasts) was tested in vitro.
# (§2) Four to eight independent replicate cultures were prepared at each dose level. At the end of the experiments, the cultured cells were harvested by scraping the wells into the appropriate medium for further analysis of either alkaline phosphatase (Sigma kit#104-LL), or cellular calcium (Sigma kit#587-M). Cultures harvested for alkaline phosphatase assessment were harvested by scraping the cells and resuspending into 250 μL Tris buffered 0.1% Triton X-100, and then assayed either fresh or following freeze-thaw. Separate cultures to be assayed for total calcium content were scraped and resuspended into 250 μL 0.5M HCL. Results of these assays were normalized to total cellular DNA, thereby normalizing for differences in cell proliferation. At the same times that cultures were harvested for alkaline phosphatase and calcium, separate replicate cultures were harvested by scraping the cells and resuspending them in 250 μL Hank's Balanced Salt Solution, and cellular number assessed by DNA (DNeasy Tissue Kit, Qiagen cat#69506).
# […] Three different sets of experiments were performed.
# The plates were cultured for 14 days. The DNA-normalized activity of alkaline phosphatase is plotted in FIG. 5.
# (§3) Inhibitors were added either on Day 1 or Day 11. […] The normalized activity of alkaline phosphatase and calcium content is plotted in FIGS. 6 and 7, respectively.
# (§4) As a control for the specificity of 15-LO inhibition for the induction of osteoblast differentiation of stem cells in vitro, the third set of experiments studied eight replicates of standard lipoxygenase inhibitors recognized as more specific to the 5-LO enzyme, rather than the 15-LO enzyme. Zileuton (1,10, 50 uM, prepared at Roche as) Compound 5, AA-861 (1, 10, 50 uM, Sigma #A371 1) and Rev-5901 (15 uM, Sigma #R5523) were prepared fresh every 2-3 days and tested in the human osteoblast precursor cells.
# [2] = system: human mesenchymal stem cells (hMSC); assay: Total calcium content of hMSC cultures induced to differentiate into osteoblasts; format: cell-based; details: for calcium content: hMSC, second experimental set, inhibitors added on Day 1 or Day 11, FIG. 7; for culture calcium deposition (total calcium content): hMSC cultured 16 days with 5-LO inhibitors, relative to DMSO or 1,25-Vitamin D3, FIG. 9
# Protocol: as §1, §2, §3, §4
# 15-LO = 15-LO (UniProt P12530); format: biochemical
# Chain of 15-LO (P12530 whole entry): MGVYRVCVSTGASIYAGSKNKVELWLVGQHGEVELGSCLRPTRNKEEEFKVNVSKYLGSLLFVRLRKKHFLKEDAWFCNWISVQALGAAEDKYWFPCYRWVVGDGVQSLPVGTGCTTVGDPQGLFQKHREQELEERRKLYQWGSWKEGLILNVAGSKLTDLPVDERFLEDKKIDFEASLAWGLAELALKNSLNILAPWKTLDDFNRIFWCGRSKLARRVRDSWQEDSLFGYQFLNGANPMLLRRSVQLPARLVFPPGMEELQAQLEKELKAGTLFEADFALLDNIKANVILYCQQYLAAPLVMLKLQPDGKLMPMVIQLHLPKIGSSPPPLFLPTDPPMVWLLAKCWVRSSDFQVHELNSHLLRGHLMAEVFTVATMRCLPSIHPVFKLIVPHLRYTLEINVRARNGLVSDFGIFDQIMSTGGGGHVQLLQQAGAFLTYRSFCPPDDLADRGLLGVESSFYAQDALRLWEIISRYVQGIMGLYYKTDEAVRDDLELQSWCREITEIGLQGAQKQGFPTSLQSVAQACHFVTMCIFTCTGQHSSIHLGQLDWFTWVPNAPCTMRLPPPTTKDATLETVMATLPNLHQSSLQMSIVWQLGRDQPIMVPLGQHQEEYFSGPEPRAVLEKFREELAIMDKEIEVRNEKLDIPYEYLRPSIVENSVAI
# Protocol: IC50's may be determined by standard methods. One particular method is a colorimetric assay in which the putative inhibitor is pre-incubated with the 15-LO enzyme for about 10 minutes followed by addition of linoleic acid substrate for an additional 10 minutes. The product, 13-HPODE, is quantitated by coupling the reduction of the hydroperoxylated lipid to the oxidation on N-benzoyl-leucomethylene blue in the presence of hemin at pH 5. The absorbance of the oxidized methylene blue is directly proportional to the amount of 13-HPODE formed by the 15-LO, and can be measured in the presence and absence of inhibitor.
# [3] = system: ovariectomized (Ovx) rats; assay: Estrogen deficiency Rat OVX osteopenia assay, BMD; format: in vivo
# Protocol: In order to determine the ability of inhibitors of 15-lipoxygenase to stimulate bone formation and bone accretion, [[[5-(5,6-difluoro-1H-indol-2-yl)-2-methoxyphenyl]amino]sulfonyl]-carbamic acid-isobutyl ester, Compound 6, was prepared as described in WO0196298 ) and tested in the standard estrogen deficiency Rat OVX osteopenia assay.
# Three month old rats are ovariectomized (Ovx) and administered 1 mg/kg/day Compound 6 or 0.1 ug/kg/day 1,25-dihydroxy vitamin D3 (positive control, abbreviated Vit. D in Table) by oral gavage once a day starting at 2 weeks post-ovariectomy and continuing for 7 weeks. The dose was increased to 2 mg/kg/day and continued until 11 weeks. Control groups, both sham (rats that were not ovariectomized) and Ovx, received vehicle only. The bone mineral density of the spine and right hip was determined by using the High Resolution Software package on a QDR-4500 Bone Densitometer^□ (Hologic, Walthan, Mass.). The animals were scanned by placing them in a supine position such that the right femur was perpendicular to the main body and the tibia was perpendicular to the femur. […]
# [4] = 3 weeks treatment, 1 mg/kg/day oral gavage
# [5] = 7 weeks treatment, 1 mg/kg/day oral gavage
# [6] = 11 weeks treatment, dose increased to 2 mg/kg/day after 7 weeks, oral gavage
# [7] = 7 weeks treatment, 0.1 ug/kg/day oral gavage (positive control)
structure (smiles),measurement,setting,value
"c1ccc2c(c1)SCc1c-2[nH]c2ccccc12 [Compound 2, 6,11-dihydro-5-thia-11-aza-benzo[a]fluorene]",Femoral Marrow area,Lck-IL4 transgenic mice,−7%
same,Femoral Total area,Lck-IL4 transgenic mice,−4%
same,normalized activity of alkaline phosphatase,[1],most effective when added on Day 1
same,calcium content,[2],most effective when added on Day 1
"COc1ccc(C(=O)Nc2ccc(Cl)c(Cl)c2)cc1N [Compound 3, 3-amino-N-(3,4-dichlorophenyl)-4-methoxybenzamide]",normalized activity of alkaline phosphatase,[1],most effective when added on Day 11
same,calcium content,[2],most effective when added on Day 11
same,pIC50,15-LO,~8.00
"CCCCCCC#Cc1ccccc1/C=C/C(=O)O [Compound 4, trans-3-(2-oct-1-ynyl-phenyl)-acrylic acid]",pIC50,15-LO,5.52 to 6.00
"CC(c1cc2ccccc2s1)N(O)C(N)=O (stereo not drawn) [Compound 5, Zilueton]",alkaline phosphatase activity,[1]; listed as Zileuton,lack ability to induce; also recorded: lack of a response
same,culture calcium deposition (total calcium content),[2]; listed as Zileuton,lack ability to induce; also recorded: lack of a response
same,IC50 for 15-LO,15-LO; result in words,negative control
"COc1ccc(-c2cc3cc(F)c(F)cc3[nH]2)cc1NS(=O)(=O)NC(=O)OCC(C)C [Compound 6, [[[5-(5,6-difluoro-1H-indol-2-yl)-2-methoxyphenyl]amino]sulfonyl]-carbamic acid-isobutyl ester]",BMD Lumbar Spine L2-L4,[3]; [4],0.2347 (0.055) gm mineral/cm^2
same,BMD Lumbar Spine L5,[3]; [4],0.2480 gm mineral/cm^2
same,BMD Proximal Femur,[3]; [4],0.2838 (0.103) gm mineral/cm^2
same,BMD Lumbar Spine L2-L4,[3]; [5],0.2474 (0.019) gm mineral/cm^2
same,BMD Lumbar Spine L5,[3]; [5],0.2549 gm mineral/cm^2
same,BMD Proximal Femur,[3]; [5],0.2932 (0.033) gm mineral/cm^2
same,BMD Lumbar Spine L2-L4,[3]; [6],0.2507 (0.009) gm mineral/cm^2
same,BMD Lumbar Spine L5,[3]; [6],0.2626 gm mineral/cm^2
same,BMD Proximal Femur,[3]; [6],0.2986 (0.039) gm mineral/cm^2
same,BMD in the spine,"[3]; at >3 weeks, result in words",increased BMD
same,BMD in the proximal femur,"[3]; at >7 weeks, result in words",increased BMD
same,pIC50,15-LO,7.08 to 7.60
CCCCCC(O)c1cccc(OCc2ccc3ccccc3n2)c1 (stereo not drawn) [Rev-5901],alkaline phosphatase activity,[1],lack ability to induce; also recorded: lack of a response
same,culture calcium deposition (total calcium content),[2],lack ability to induce; also recorded: lack of a response
"C=C1/C(=C\C=C2/CCC[C@]3(C)[C@@H]([C@H](C)CCCC(C)(C)O)CC[C@@H]23)C[C@@H](O)C[C@@H]1O [Vit D, 1,25-dihydroxy vitamin D3, reference compound]",BMD Lumbar Spine L2-L4,[3]; [7],0.2628 (0.023) gm mineral/cm^2
same,BMD Lumbar Spine L5,[3]; [7],0.2742 gm mineral/cm^2
